Measurements published in ChEMBL document CHEMBL1133319, “Eryloside F, a novel penasterol disaccharide possessing potent thrombin receptor antagonist activity” (Bioorg Med Chem Lett, 2000).
≈ marks a conversion by molar mass, not a printed value.

Experiments:
Homo sapiens [1] = species on record: Homo sapiens; assay: Inhibitory concentration of compound was determined against U-46619 (3 uM) induced platelet aggregation; type: functional
Homo sapiens [2] = species on record: Homo sapiens; assay: Inhibitory concentration of compound was determined against SFLLRN (3 uM) induced platelet aggregation; type: functional

IC50 (Homo sapiens [1]): 1.7 µg/mL (≈ 2.26 µM)
IC50 (Homo sapiens [2]): 0.3 µg/mL (≈ 0.399 µM)
Compound: CC(C)=CCC[C@@H](C)[C@H]1CC[C@@]2(C(=O)O)C3=C(CC[C@]12C)[C@@]1(C)CC[C@H](O[C@@H]2OC[C@H](O)[C@H](O)[C@H]2O[C@@H]2O[C@H](CO)[C@H](O)[C@H](O)[C@H]2O)C(C)(C)[C@@H]1CC3 [ERYLOSIDE F]
